From US20250214942A1, “INHIBITORS OF RECEPTOR INTERACTING PROTEIN KINASE I FOR THE TREATMENT OF DISEASE” (Board of Regents, The University of Texas System, priority 2019, published 2025)
pIC50: −log10 of the molar value. Where two headings read alike, the source gives them in different places.

Test system: human monocytic cell line U937
Test: Human U937 cellular necroptosis assay (TNFalpha + z-VAD-FMK, Cell Titer-Glo viability)
Assay type: cell-based
Conditions: U937 cells, 25 ng/mL human TNFalpha + 25 μM z-VAD-FMK, read-out: hU937 Avg IC50
Protocol: The human monocytic cell line U937 (CRL-1593.2) was purchased from ATCC. The cells were routinely maintained in RPMI-1640 Medium (Gibco, Catalog #11875-093) supplemented with 10% heat inactivated fetal bovine serum (Gibco, Catalog #16140-071), 100 units/mL penicillin and 100 μg/mL streptomycin (Gibco, Catalog #15140-122), in a humidified incubator (37° C., 5% CO2). For the assay, cells were resuspended in RPMI-1640 phenol red free Media (Gibco, Catalog #11835-030) supplemented with 10% fetal bovine serum (Sigma, Catalog #F2442), 100 units/mL penicillin and 100 ug/mL streptomycin. Cells were stimulated with 25 ng/mL human TNFalpha (Cell Sciences, Catalog #CSI15659B) and 25 μM z-VAD-FMK (R&D Systems, Catalog #FMK001) followed by seeding 5000 cells per well in a volume of 40 μL to a white, CulturPlate-384 (Perkin Elmer, Catalog #6007680). Stock solutions of the test compounds were prepared in 100% DMSO (Sigma, Catalog #D2650) and serially diluted 1:3 using 100% DMSO. Compounds were additionally diluted 1:40 in assay medium, and 10 μL/well was transferred to the plate. Following the compound addition the plate was incubated at 37° C. and 5% CO2 for 22 h. After 22 h, viability was assessed with the addition of 20 μL of Cell Titer-Glo 2.0 (Promega, Catalog #G9243). The tissue culture plate was shaken on an orbital shaker at 300 RPM for 15 minutes at rt in the dark. Luminescence was measured using a PerkinElmer Envision™ plate reader. IC50 values were calculated using a four-parameter logistic curve fit using Genedata Screener software. Results are shown below in Table 3, where the average value across multiple runs is given.

SMILES | pIC50 (Homo sapiens, U-937, 22 h) | pIC50 (22 h)
C[C@H](NC(=O)C12CC(Cn3ncc4cc(C#N)ccc43)(C1)C2)c1c(F)cccc1Cl [Example 256, (S)-N-(1-(2-chloro-6-fluoro-phenyl)ethyl)-3-((5-cyano-1H-indazol-1-yl)methyl)bicyclo-[1.1.1]pentane-1-carboxamide] | 6.05 | –
N#Cc1ccc2c(cnn2CC23CC(C(=O)N4N=CCC4c4ccc(C#N)s4)(C2)C3)c1 (centres unmarked) [Example 251, 1-((3-(5-(5-cyanothiophen-2-yl)-4,5-dihydro-1H-pyrazole-1-carbonyl)bicyclo[1.1.1]-pentan-1-yl)methyl)-1H-indazole-5-carbonitrile] | 6.40 | –
CC(c1cc(F)ccc1F)N(C)C(=O)C12CC(COc3cnc(C#N)cn3)(C1)C2 (centres unmarked) [Example 301, 3-(((5-cyanopyrazin-2-yl)oxy)-methyl)-N-(1-(2,5-difluoro-phenyl)ethyl)-N-methyl-bicyclo[1.1.1]pentane-1-carboxamide] | 5.11 | –
N#Cc1cnc(OCC23CC(C(=O)NCc4ccccc4F)(C2)C3)cn1 [Example 300, 3-(((5-cyanopyrazin-2-yl)-oxy)methyl)-N-(2-fluoro-benzyl)bicyclo[1.1.1]pentane-1-carboxamide] | – | 5.13
Cc1cnc(C2CC=NN2C(=O)C23CC(Cn4ncc5nc(C#N)ccc54)(C2)C3)cn1 (centres unmarked) [Example 235, 1-((3-(5-(5-methylpyrazin-2-yl)-4,5-dihydro-1H-pyrazole-1-carbonyl)bicyclo[1.1.1]-pentan-1-yl)methyl)-1H-pyrazolo[4,3-b]pyridine-5-carbonitrile] | 6.47 | –
O=C(N1N=CCC1c1cc(F)cc(F)c1)C12CC(COc3ncc(Cl)cn3)(C1)C2 (centres unmarked) [Example 322, (3-(((5-chloropyrimidin-2-yl)oxy)methyl)bicyclo[1.1.1]-pentan-1-yl)(5-(3,5-difluoro-phenyl)-4,5-dihydro-1H-pyrazol-1-yl)methanone] | 7.22 | –
COc1ccc2c(cnn2CC23CC(C(=O)N4N=CCC4c4cc(F)cc(F)c4)(C2)C3)n1 (centres unmarked) [Example 215, (5-(3,5-difluorophenyl)-4,5-dihydro-1H-pyrazol-1-yl)(3-((5-methoxy-1H-pyrazolo[4,3-b]pyridin-1-yl)methyl)bicyclo-[1.1.1]pentan-1-yl)methanone] | 7.10 | –
Cc1ccc2c(cnn2CC23CC(C(=O)N4N=CCC4c4cc(F)cc(F)c4)(C2)C3)n1 (centres unmarked) [Example 165, (5-(3,5-difluorophenyl)-4,5-dihydro-1H-pyrazol-1-yl)(3-((5-methyl-1H-pyrazolo[4,3-b]pyridin-1-yl)methyl)-bicyclo[1.1.1]pentan-1-yl)methanone] | 6.71 | –
N#Cc1cnc(OCC23CC(C(=O)N4N=CCC4c4cc(F)cc(F)c4)(C2)C3)nc1 (centres unmarked) [Example 324, 2-((3-(5-(3,5-difluorophenyl)-4,5-dihydro-1H-pyrazole-1-carbonyl)bicyclo[1.1.1]pentan-1-yl)methoxy)pyrimidine-5-carbonitrile] | 6.78 | –
N#Cc1cnc2c(ccn2CC23CC(C(=O)N4N=CCC4c4cc(F)cc(F)c4)(C2)C3)n1 (centres unmarked) [Example 211, 5-((3-(5-(3,5-difluorophenyl)-4,5-dihydro-1H-pyrazole-1-carbonyl)bicyclo[1.1.1]pentan-1-yl)methyl)-5H-pyrrolo[2,3-b]pyrazine-2-carbonitrile] | 7.80 | –
N#Cc1ccc(OCC23CC(C(=O)N4N=CCC4c4cncc(C#N)c4)(C2)C3)nc1 (centres unmarked) [Example 286, 5-(1-(3-(((5-cyanopyridin-2-yl)oxy)methyl)bicyclo[1.1.1]-pentane-1-carbonyl)-4,5-dihydro-1H-pyrazol-5-yl)-nicotinonitrile] | 6.66 | –
N#Cc1cnc(OCC23CC(C(=O)N4N=CCC4c4ccccc4Cl)(C2)C3)cn1 (centres unmarked) [Example 318, 5-((3-(5-(2-chlorophenyl)-4,5-dihydro-1H-pyrazole-1-carbonyl)bicyclo[1.1.1]pentan-1-yl)methoxy)pyrazine-2-carbonitrile] | 7.26 | –
CC1CCN(C(=O)C23CC(COc4cnc(C#N)cn4)(C2)C3)C1c1ccccc1 (centres unmarked) [Example 302, 5-((3-(3-methyl-2-phenyl-pyrrolidine-1-carbonyl)-bicyclo[1.1.1]pentan-1-yl)-methoxy)pyrazine-2-carbonitrile] | 5.01 | –
C[C@@H](c1c(F)cccc1F)N(C)C(=O)C12CC(COc3cnc(C#N)cn3)(C1)C2 [Example 292, (S)-3-(((5-cyanopyrazin-2-yl)oxy)methyl)-N-(1-(2,6-difluorophenyl)ethyl)-N-methylbicyclo[1.1.1]pentane-1-carboxamide] | 6.02 | –
Cc1ccc(C2CC=NN2C(=O)C23CC(Cn4ncc5cc(C#N)ccc54)(C2)C3)cc1 (centres unmarked) [Example 309, 1-((3-(5-(p-tolyl)-4,5-dihydro-1H-pyrazole-1-carbonyl)-bicyclo[1.1.1]pentan-1-yl)-methyl)-1H-indazole-5-carbonitrile] | 7.89 | –
Cc1ccc(C2CC=NN2C(=O)C23CC(COc4ccc(C#N)cn4)(C2)C3)c(F)c1 (centres unmarked) [Example 271, 6-((3-(5-(2-fluoro-4-methyl-phenyl)-4,5-dihydro-1H-pyrazole-1-carbonyl)bicyclo-[1.1.1]pentan-1-yl)methoxy)-nicotinonitrile] | 7.70 | –
Cc1c(F)cc([C@H]2CC=NN2C(=O)C23CC(COc4ccc(C#N)cn4)(C2)C3)cc1F [Example 266, (R)-6-((3-(5-(3,5-difluoro-4-methylphenyl)-4,5-dihydro-1H-pyrazole-1-carbonyl)-bicyclo[1.1.1]pentan-1-yl)-methoxy)nicotinonitrile] | 5.74 | –
Cc1ccc(C2CC=NN2C(=O)C23CC(COc4cnc(C#N)cn4)(C2)C3)cc1 (centres unmarked) [Example 198, 5-((3-(5-(p-Tolyl)-4,5-dihydro-1H-pyrazole-1-carbonyl)bicyclo[1.1.1]pentan-1-yl)methoxy)pyrazine-2-carbonitrile] | 8.13 | –
N#Cc1ccc2c(cnn2CC23CC(C(=O)N4C[C@H](O)C[C@H]4c4cccc(F)c4)(C2)C3)c1 (single isomer, unassigned) [Example 263] | 5.02 | –
Cc1cccc(C2CC=NN2C(=O)C23CC(COc4ccc(C#N)cn4)(C2)C3)c1 (centres unmarked) [Example 279, 6-((3-(5-(m-tolyl)-4,5-dihydro-1H-pyrazole-1-carbonyl)-bicyclo[1.1.1]pentan-1-yl)-methoxy)nicotinonitrile] | 6.98 | –
Cc1ccc(C2CC=NN2C(=O)C23CC(Cn4ncc5cc(C#N)ccc54)(C2)C3)cc1F (centres unmarked) [Example 239, 1-((3-(5-(3-fluoro-4-methyl-phenyl)-4,5-dihydro-1H-pyrazole-1-carbonyl)bicyclo-[1.1.1]pentan-1-yl)methyl)-1H-indazole-5-carbonitrile] | 8.00 | –
N#Cc1cnc(OCC23CC(C(=O)NCc4c(F)cccc4F)(C2)C3)cn1 [Example 294, 3-(((5-cyanopyrazin-2-yl)oxy)-methyl)-N-(2,6-difluoro-benzyl)bicyclo[1.1.1]pentane-1-carboxamide] | 5.25 | –
N#Cc1cnc(OCC23CC(C(=O)NCc4cccc(F)c4F)(C2)C3)cn1 [Example 296, 3-(((5-cyanopyrazin-2-yl)-oxy)methyl)-N-(2,3-difluoro-benzyl)bicyclo[1.1.1]pentane-1-carboxamide] | 5.23 | –
N#Cc1cnc(OCC23CC(C(=O)NCc4ccccc4F)(C2)C3)cn1 [Example 293, 3-(((5-cyanopyrazin-2-yl)oxy)-methyl)-N-(2-fluorobenzyl)-bicyclo[1.1.1]pentane-1-carboxamide] | – | 5.82
CN(CC12CC(C(=O)N3N=CCC3c3cc(F)cc(F)c3)(C1)C2)c1cnc(C#N)cn1 (centres unmarked) [Example 206, 5-(((3-(5-(3,5-Difluorophenyl)-4,5-dihydro-1H-pyrazole-1-carbonyl)bicyclo[1.1.1]pentan-1-yl)methyl)(methyl)amino)pyrazine-2-carbonitrile] | 6.96 | –
N#Cc1ccc2c(cnn2CC23CC(C(=O)N4N=CCC4c4nc(C#N)cs4)(C2)C3)c1 (centres unmarked) [Example 254, 2-(1-(3-((5-cyano-1H-indazol-1-yl)methyl)bicyclo[1.1.1]-pentane-1-carbonyl)-4,5-dihydro-1H-pyrazol-5-yl)-thiazole-4-carbonitrile] | 6.30 | –
Cc1c(F)cc([C@@H]2CC=NN2C(=O)C23CC(COc4ccc(C#N)cn4)(C2)C3)cc1F [Example 265, (S)-6-((3-(5-(3,5-difluoro-4-methylphenyl)-4,5-dihydro-1H-pyrazole-1-carbonyl)-bicyclo[1.1.1]pentan-1-yl)-methoxy)nicotinonitrile] | 8.08 | –
Cc1cc(C#N)cnc1OCC12CC(C(=O)N3N=CCC3c3cc(F)cc(F)c3)(C1)C2 (centres unmarked) [Example 225, 6-((3-(5-(3,5-difluorophenyl)-4,5-dihydro-1H-pyrazole-1-carbonyl)bicyclo[1.1.1]pentan-1-yl)methoxy)-5-methyl-nicotinonitrile] | 7.04 | –
N#Cc1ccc2c(cnn2CC23CC(C(=O)N4N=CCC4c4ccc(F)cc4)(C2)C3)c1 (centres unmarked) [Example 244, 1-((3-(5-(4-fluorophenyl)-4,5-dihydro-1H-pyrazole-1-carbonyl)bicyclo[1.1.1]pentan-1-yl)methyl)-1H-indazole-5-carbonitrile] | 7.43 | –
